In patent US20180184661A1, “Improved Herbicidal Composition, Method and Use” (Arysta LifeScience Benelux Sprl, priority 2015, published 2018):

How the values were obtained:
Experiment in all cases: Pre-emergence field trial in citrus, residual broadleaf weed control
Type in all cases: in vivo
[1] = test system: Sow thistle (Sonchus tenerrimus, SONTE); conditions: Spain, diuron 900 and/or oxyfluorfen 90 g a.i./ha, rated 15 to 90 days after application
Description: (§1) Field trials were conducted in citrus crops using standard herbicide small plot research methodology. Plots varied from 12 square meters (m^2) to 30 m^2 (2×15) with 3 to 4 replicates per treatment. The citrus crops were grown using normal cultural practices for the respective areas for the trials, using normal planting, fertilization, watering, flooding and maintenance for pests to ensure good growth of the crop and the weeds.
(§2) All treatments in the field trials were applied with a knapsack sprayer using compressed air as propellant. The sprayer was equipped with a boom and flat fan nozzles, and calibrated to apply homogeneously a spray volume of 200 to 400 litres/hectare at constant pressure.
(§3) Diuron in combination with oxyfluorfen, in the form of a ready for use formulation, was compared to a diuron formulation and an oxyfluorfen formulation, at dose rates of respectively […]., 900 g a.i./ha and 90 g a.i./ha.
(§4) Treatments were rated at different intervals from treatment to evaluation, from 15 to 120 days after application as compared to the untreated control plants. Assessment were done recording the percentage of ground covered by weeds and the visual efficacy on a scale of 0 to 100 percent where 0 corresponds to no weed control and 100 corresponds to complete weed control.
(§5) Trials were conducted under field conditions in Spain. Trial sites were located in commercially grown European citrus crop. The citrus trees were grown using normal cultural practices for fertilization, seeding and maintenance to ensure good growth of the crop and the weeds. The trials were conducted using normal research methodology. Plots varied from 12 square meters (m^2) to 30 m^2 (2×15) with 3 to 4 replicates per treatment. All treatment results are an average of 3 to 4 replicates. The trials had naturally occurring populations of weeds. The weed spectrum included, but was not limited to black nightshade (Solanum nigrum; SOLNI), Sow thistle (Sonchus tenerrimus, SONTE), fleabane (Conyza bonariensis, ERIBO), DIPER, hairy fleabane (Conyza bonariensis, ERIBO), redroot pigweed (Amaranthus retroflexus, AMA).
(§6) Treatments consisted applications of diuron+oxyfluorfen, diuron solo or oxyfluorfen solo. […] Colby's equation was used to determine the herbicidal effects expected from the mixtures (Colby, S. R. Calculation of the synergistic and antagonistic response of herbicide combinations. Weeds 1967, 15, 20-22.). The following equation was used to calculate the expected activity of mixtures containing two active ingredients, A and B:
(§7) A=observed efficacy of active ingredient A at the s e concentration as used in the mixture. B=observed efficacy of active ingredient B at the s e concentration as used in the mixture.
(§8) Ob=Observed visual weed control, Ex=Expected weed control as defined by Colby Equation

[2] = test system: Wall-rocket (Diplotaxis erucoides, DIPER); conditions: trial SRES14 061 230 HE, Spain, diuron 900 and/or oxyfluorfen 90 g a.i./ha, rated 15 to 90 days after application
Description: as §1, §2, §3, §4, §5, §6, §7, §8

[3] = test system: black nightshade (Solanum nigrum, SOLNI); conditions: trial SRES14 059 230 HE, Spain, diuron 900 and/or oxyfluorfen 90 g a.i./ha, rated 15 to 90 days after application
Description: as §1, §2, §3, §4, §5, §6, §7, §8

[4] = test system: fleabane (Conyza bonariensis, ERIBO); conditions: Spain, diuron 900 and/or oxyfluorfen 90 g a.i./ha, rated 15 to 90 days after application
Description: as §1, §2, §3, §4, §5, §6, §7, §8

[5] = test system: pigweed, redroot (Amaranthus retroflexus, AMARE); conditions: trial SRES14 061 230 HE, Spain, diuron 900 and/or oxyfluorfen 90 g a.i./ha, rated 15 to 90 days after application
Description: as §1, §2, §3, §4, §5, §6, §7, §8

| SMILES | % Control SONTE Obs ([1]; trial SRES14 059 230 HE) [%] | % Control SONTE Obs ([1]; trial SRES14 060 230 HE) [%] | % Control DIPER Obs [2] [%] | % Control SOLNI Obs [3] [%] | % Control ERIBO Obs ([4]; trial SRES14 059 230 HE) [%] | % Control ERIBO Obs ([4]; trial SRES14 060 230 HE) [%] | % Control ERIBO Obs ([4]; trial SRES14 061 230 HE) [%] | % Control AMARE Obs [5] [%] |
| --- | --- | --- | --- | --- | --- | --- | --- | --- |
| CN(C)C(=O)Nc1ccc(Cl)c(Cl)c1 [Diuron, N′-(3,4-dichlorophenyl)-N,N-dimethylurea] | 57.5 | 45 | 88.8 | 55 | 62.5 | 46.3 | 28.8 | 53.8 |
| CCOc1cc(Oc2ccc(C(F)(F)F)cc2Cl)ccc1[N+](=O)[O-] [Oxyfluorfen, 2-chloro-1-(3-ethoxy-4-nitrophenoxy)-4-(trifluoromethyl)benzene] | 28.8 | 10 | 20 | 47.5 | 35 | 47.5 | 43.8 | 45 |
